Measured values from PubChem BioAssay (NCI).
“And” between values parts separate entries of the source, which are not always exact repeats. Equal entries are not always repeated.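 Step 1: Grow cells in 96-well plates. Step 2: Expose to compound for 48 hours at 5 concentrations. Step 3: Interpolate endpoints linearly; if unreached, use highest concentration. GI50 marks 50% less growth. TGI: concentration producing complete growth inhibition.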

Tests used:
Assay in all cases: NCI tumour cell line growth inhibition, 48 h
[1] = tested on: NCI-H23 lung
[2] = tested on: OVCAR-3 ovarian
[3] = tested on: RXF-631 renal
[4] = tested on: OVCAR-4 ovarian
[5] = tested on: HOP-62 NSCLC
[6] = tested on: CAKI-1 renal
[7] = tested on: RPMI-8226 leukemia
[8] = tested on: SK-MEL-5 melanoma
[9] = tested on: XF 498 CNS
[10] = tested on: RXF 393 renal
[11] = tested on: CCRF-CEM leukemia
[12] = tested on: U251 CNS
[13] = tested on: HCT-15 colon
[14] = tested on: LXFL 529 NSCLC
[15] = tested on: SF-539 CNS
[16] = tested on: SK-MEL-2 melanoma
[17] = tested on: UACC-257 melanoma
[18] = tested on: IGROV1 ovarian
[19] = tested on: MALME-3M melanoma
[20] = tested on: HCC-2998 colon
[21] = tested on: DLD-1 colon
[22] = tested on: KM20L2 colon
[23] = tested on: LOX IMVI melanoma
[24] = tested on: NCI-H226 lung
[25] = tested on: SK-OV-3 ovarian
[26] = tested on: SK-MEL-28 melanoma
[27] = tested on: A498 renal
[28] = tested on: SF-268 CNS
[29] = tested on: M19-MEL melanoma
[30] = tested on: SNB-75 CNS
[31] = tested on: OVCAR-5 ovarian
[32] = tested on: NCI-H522 lung
[33] = tested on: HCT-116 colon
[34] = tested on: NCI/ADR-RES ovarian
[35] = tested on: DMS 114 small cell lung
[36] = tested on: MCF7 breast
[37] = tested on: UACC-62 melanoma
[38] = tested on: HOP-18 NSCLC
[39] = tested on: SN12K1 renal
[40] = tested on: SF-295 CNS
[41] = tested on: HT29 colon
[42] = tested on: SNB-78 CNS
[43] = tested on: EKVX NSCLC
[44] = tested on: 786-0 renal
[45] = tested on: SNB-19 CNS
[46] = tested on: SN12C renal
[47] = tested on: SW-620 colon
[48] = tested on: UO-31 renal
[49] = tested on: P388/ADR leukemia
[50] = tested on: NCI-H460 lung
[51] = tested on: OVCAR-8 ovarian
[52] = tested on: A549 NSCLC
[53] = tested on: KM12 colon
[54] = tested on: P388 leukemia
[55] = tested on: K-562 leukemia
[56] = tested on: HOP-92 NSCLC
[57] = tested on: MOLT-4 leukemia
[58] = tested on: TK-10 renal
[59] = tested on: DMS 273 small cell lung
[60] = tested on: M14 melanoma
[61] = tested on: HL-60(TB) leukemia
[62] = tested on: ACHN renal
[63] = tested on: COLO 205 colon
[64] = tested on: SR leukemia

Cc1c2ccnc(C(N)=O)c2c(C)c2c1[nH]c1ccccc12
GI50 [1]: 3.41 µM | TGI [1]: 24.4 µM and 18.9 µM | GI50 [2]: 5.94 µM | TGI [2]: 34.8 µM and 32.1 µM | TGI [3]: 28.8 µM | GI50 [4]: 7.56 µM | TGI [4]: 29.7 µM and 93.7 µM | GI50 [5]: 4.03 µM | TGI [5]: 26.8 µM and 16.9 µM | GI50 [6]: 4.82 µM | TGI [6]: 9.58 µM and 26.4 µM | GI50 [7]: 3.58 µM | TGI [7]: 34.5 µM and 16.4 µM | TGI [8]: 13.6 µM | TGI [9]: 19.8 µM and 26.4 µM | TGI [10]: 16.6 µM | GI50 [11]: 3.64 µM | TGI [11]: 46.6 µM and > 100 µM | GI50 [12]: 4.14 µM | TGI [12]: 37.7 µM and 16.5 µM | TGI [13]: 41.1 µM and > 100 µM | TGI [14]: 26.9 µM | GI50 [15]: 3.75 µM | TGI [15]: 23.9 µM and 13.9 µM | GI50 [16]: 9.86 µM | TGI [16]: 37.5 µM and 44.1 µM | TGI [17]: 35.1 µM | GI50 [18]: 7.49 µM | TGI [18]: 50 µM and 27.4 µM | GI50 [19]: 5.02 µM | TGI [19]: 19.3 µM | GI50 [20]: 4.67 µM | TGI [20]: 50 µM and 19.4 µM | GI50 [21]: 3.57 µM | TGI [21]: 45 µM and 23.6 µM | TGI [22]: 40.5 µM | TGI [23]: 21.2 µM | GI50 [24]: 3.28 µM | TGI [24]: 19.8 µM and 15.7 µM | GI50 [25]: 14.1 µM | TGI [25]: 23.9 µM and 34.3 µM | GI50 [26]: 5.31 µM | TGI [26]: 19.4 µM and 20.1 µM | GI50 [27]: 3.09 µM | TGI [27]: 26.7 µM and 12.4 µM | GI50 [28]: 6.19 µM | TGI [28]: 44.6 µM and 27.8 µM | GI50 [29]: 4.7 µM | TGI [29]: 25.2 µM and 17.4 µM | GI50 [30]: 13.8 µM | TGI [30]: 24.6 µM and 39.9 µM | GI50 [31]: 6.41 µM | TGI [31]: 37.4 µM and 33.3 µM | TGI [32]: 31.6 µM | TGI [33]: 17.4 µM | TGI [34]: 34 µM | GI50 [35]: 6.72 µM | TGI [35]: 47.3 µM and 47.6 µM | TGI [36]: 32 µM | TGI [37]: 15.8 µM and 20.4 µM | GI50 [38]: 15 µM | TGI [38]: 46.5 µM and 47.3 µM | TGI [39]: 19.1 µM | GI50 [40]: 4.37 µM | TGI [40]: 25.6 µM and 22.3 µM | GI50 [41]: 4.12 µM | TGI [41]: 23.2 µM and 20.4 µM | GI50 [42]: 6.28 µM | TGI [42]: 48.3 µM and > 100 µM | GI50 [43]: 6.56 µM | TGI [43]: 35.3 µM and 46.8 µM | TGI [44]: 23.3 µM | GI50 [45]: 4.45 µM | TGI [45]: 46.9 µM and 19.9 µM | GI50 [46]: 5.44 µM | TGI [46]: 27.9 µM and 31.6 µM | TGI [47]: 45.6 µM and 40.8 µM | GI50 [48]: 5.6 µM | TGI [48]: 25.2 µM and 21.7 µM | TGI [49]: 35.8 µM | GI50 [50]: 2.62 µM | TGI [50]: 16.2 µM and 13.7 µM | GI50 [51]: 4.87 µM | TGI [51]: 19.1 µM and > 100 µM | GI50 [52]: 3.28 µM | TGI [52]: 37.1 µM and 15.8 µM | GI50 [53]: 0.651 µM | TGI [53]: 47.2 µM and 56.1 µM | TGI [54]: 14 µM | GI50 [55]: 3.9 µM | TGI [55]: 48.2 µM and > 100 µM | GI50 [56]: 2.96 µM and 11.5 µM | TGI [56]: 12 µM and 53.2 µM | TGI [57]: 25.1 µM and 12.9 µM | TGI [58]: 22.5 µM | GI50 [59]: 3.5 µM | TGI [59]: 23.7 µM and 16.7 µM | TGI [60]: > 100 µM | GI50 [61]: 4.36 µM | TGI [61]: 38.3 µM and > 100 µM | TGI [62]: 13.8 µM | TGI [63]: 50 µM and > 100 µM

COC(=O)/C=C(/C(=O)OC)C1(C)c2cc(C(=O)OC)c(C(=O)OC)c(N)c2C(=N)N1c1ccccc1 (stereo unspecified)
TGI [1]: 45.6 µM | TGI [2]: 38.3 µM | TGI [3]: 86.9 µM | TGI [5]: > 100 µM | TGI [6]: 56.1 µM | TGI [7]: 57.6 µM | TGI [9]: 28.4 µM | TGI [10]: 36.1 µM | TGI [11]: 50.4 µM | TGI [12]: 48.9 µM | TGI [13]: > 100 µM | TGI [14]: 38.6 µM | TGI [15]: 48.9 µM | TGI [16]: 81.4 µM | TGI [18]: 76.8 µM | TGI [19]: 32.7 µM | TGI [20]: 51.6 µM | TGI [21]: 29.4 µM | TGI [22]: 34.8 µM | TGI [23]: 35 µM | TGI [24]: 89.9 µM | TGI [64]: 58.5 µM | TGI [25]: > 100 µM | TGI [26]: 36.5 µM | TGI [27]: 88.9 µM | TGI [28]: 41 µM | TGI [29]: 41.9 µM | TGI [30]: 81 µM | TGI [31]: > 100 µM | TGI [32]: 27.8 µM | TGI [33]: 29.3 µM | TGI [35]: 31.6 µM | TGI [37]: 41.2 µM | TGI [38]: 62 µM | TGI [40]: 40.2 µM | TGI [41]: 31.7 µM | TGI [43]: > 100 µM | TGI [44]: 74.4 µM | TGI [45]: > 100 µM | TGI [46]: 48.4 µM | TGI [48]: 47.1 µM | TGI [50]: > 100 µM | TGI [51]: 37.9 µM | TGI [52]: > 100 µM | TGI [53]: 32.9 µM | TGI [55]: 51.7 µM | TGI [56]: 43.6 µM | TGI [57]: 46.2 µM | TGI [58]: > 100 µM | TGI [59]: > 100 µM | TGI [60]: 33.6 µM | TGI [61]: 32.6 µM | TGI [62]: 48.7 µM | TGI [63]: 29.7 µM
